Experimental data reported in ChEMBL document CHEMBL3217670, “Structures and biofilm inhibition activities of brominated furanones for Escherichia coli and Pseudomonas aeruginosa” (Medchemcomm, 2013).
Activity calls are given as the source filed them. The rule behind the calls is not given here.

Assays:
[1] = tested on: Pseudomonas aeruginosa; assay: Antimicrobial activity against wild-type Pseudomonas aeruginosa PAO1 assessed as inhibition of planktonic growth at 1 to 100 uM measured for 2 to 24 hrs; format: organism-based; conditions: in vivo
[2] = tested on: Escherichia coli; assay: Antimicrobial activity against wild-type Escherichia coli RP437 assessed as inhibition of planktonic growth at 200 uM measured for 2 to 24 hrs; format: organism-based; conditions: in vivo
[3] = tested on: Escherichia coli; assay: Inhibition of biofilm formation in wild-type Escherichia coli RP437 at 100 uM; format: functional, organism-based
[4] = tested on: Pseudomonas aeruginosa; assay: Inhibition of biofilm formation in wild-type Pseudomonas aeruginosa PAO1 at 100 uM; format: functional, organism-based
[5] = tested on: Pseudomonas aeruginosa; assay: Antimicrobial activity against wild-type Pseudomonas aeruginosa PAO1 assessed as inhibition of planktonic growth at 200 uM measured for 2 to 24 hrs; format: organism-based; conditions: in vivo
[6] = tested on: Escherichia coli; assay: Antimicrobial activity against wild-type Escherichia coli RP437 assessed as inhibition of planktonic growth at 1 to 100 uM measured for 2 to 24 hrs; format: organism-based; conditions: in vivo
[7] = tested on: Escherichia coli; assay: Antimicrobial activity against sdiA-knockout Escherichia coli AY1297 assessed as inhibition of planktonic growth at 200 uM measured for 2 to 24 hrs; format: organism-based; conditions: in vivo
[8] = tested on: Escherichia coli; assay: Ratio of inhibition of biofilm formation in sdiA-knockout Escherichia coli AY1297 to inhibition of biofilm formation in wild-type Escherichia coli RP437; format: functional
[9] = tested on: Escherichia coli; assay: Inhibition of biofilm formation in wild-type Escherichia coli RP437 at 300 uM after 24 hrs by crystal violet staining-based assay relative to control; format: functional; conditions: RP437, 24 h
[10] = tested on: Escherichia coli; assay: Inhibition of biofilm formation in wild-type Escherichia coli RP437 at 200 uM after 24 hrs by crystal violet staining-based assay relative to control; format: functional
[11] = tested on: Pseudomonas aeruginosa; assay: Inhibition of biofilm formation in wild-type Pseudomonas aeruginosa PAO1 expressing red fluorescent protein assessed as effect on thickness of biofilm at 200 uM after 24 hrs by confocal laser scanning microscopic analysis; format: functional, organism-based
[12] = tested on: Escherichia coli; assay: Inhibition of biofilm formation in sdiA-knockout Escherichia coli AY1297 at 300 uM after 24 hrs by crystal violet staining-based assay relative to control; format: functional; conditions: AY1297, 24 h
[13] = target: T1, Transcriptional activator protein LasR (Pseudomonas aeruginosa (strain ATCC 15692 / PAO1 / 1C / PRS 101 / LMG12228)) (UniProt P25084); assay: Antagonist activity at Pseudomonas aeruginosa PAO1 LasR expressing lasI coexpressing LVA-GFP at 100 to 200 uM after 24 hrs by fluorescence assay
T1 sequence (whole entry): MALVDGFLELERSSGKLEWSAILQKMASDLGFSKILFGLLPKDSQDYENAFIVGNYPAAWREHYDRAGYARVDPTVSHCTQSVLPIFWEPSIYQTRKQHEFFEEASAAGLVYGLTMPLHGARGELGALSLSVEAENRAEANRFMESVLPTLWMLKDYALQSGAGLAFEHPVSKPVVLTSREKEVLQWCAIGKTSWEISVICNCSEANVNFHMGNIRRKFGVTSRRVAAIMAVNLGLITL

[14] = tested on: Escherichia coli; assay: Antimicrobial activity against sdiA-knockout Escherichia coli AY1297 assessed as inhibition of planktonic growth at 300 uM measured for 2 to 24 hrs; format: organism-based; conditions: in vivo
[15] = target: T2, HTH-type quorum-sensing regulator RhlR (Pseudomonas aeruginosa (strain ATCC 15692 / PAO1 / 1C / PRS 101 / LMG12228)) (UniProt P54292); assay: Agonist activity at Pseudomonas aeruginosa PAO1 RhlR expressing rhlI coexpressing LVA-GFP at 100 to 200 uM after 24 hrs by fluorescence assay
T2 sequence (whole entry): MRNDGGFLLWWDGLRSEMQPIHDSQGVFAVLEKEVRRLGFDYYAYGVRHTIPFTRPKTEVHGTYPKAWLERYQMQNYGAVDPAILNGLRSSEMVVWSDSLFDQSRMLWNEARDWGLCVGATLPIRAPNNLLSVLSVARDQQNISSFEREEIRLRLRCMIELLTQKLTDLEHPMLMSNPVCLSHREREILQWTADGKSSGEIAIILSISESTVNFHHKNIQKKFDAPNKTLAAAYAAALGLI

[16] = tested on: Pseudomonas aeruginosa; assay: Inhibition of biofilm formation in wild-type Pseudomonas aeruginosa PAO1 expressing red fluorescent protein assessed as reduction in biomass at 200 uM after 24 hrs by confocal laser scanning microscopic analysis relative to control; format: functional
[17] = tested on: Pseudomonas aeruginosa; assay: Inhibition of biofilm formation in wild-type Pseudomonas aeruginosa PAO1 expressing red fluorescent protein assessed as effect on surface area of biofilm at 200 uM after 24 hrs by confocal laser scanning microscopic analysis; format: functional, organism-based
[18] = tested on: Pseudomonas aeruginosa; assay: Inhibition of biofilm formation in wild-type Pseudomonas aeruginosa PAO1 at 200 uM after 24 hrs by crystal violet staining-based assay relative to control; format: functional
[19] = tested on: Pseudomonas aeruginosa PAO1; assay: Inhibition of quorum sensing system-mediated elastase B production in Pseudomonas aeruginosa PAO1 at 200 uM after 24 hrs by colorimetric assay relative to control
[20] = tested on: Escherichia coli; assay: Inhibition of biofilm formation in sdiA-knockout Escherichia coli AY1297 at 200 uM after 24 hrs by crystal violet staining-based assay relative to control; format: functional
[21] = tested on: Escherichia coli; assay: Antimicrobial activity against wild-type Escherichia coli RP437 assessed as inhibition of planktonic growth at 300 uM measured for 2 to 24 hrs; format: organism-based; conditions: in vivo
[22] = tested on: Pseudomonas aeruginosa; assay: Antimicrobial activity against wild-type Pseudomonas aeruginosa PAO1 assessed as inhibition of planktonic growth at 300 uM measured for 2 to 24 hrs; format: organism-based; conditions: in vivo
[23] = tested on: Escherichia coli; assay: Inhibition of biofilm formation in wild-type Escherichia coli RP437 expressing red fluorescent protein assessed as thickness of biofilm at 200 uM after 24 hrs by confocal laser scanning microscopic analysis (reference value: 253 micrometer); format: functional
[24] = tested on: Escherichia coli; assay: Inhibition of biofilm formation in sdiA-knockout Escherichia coli AY1297 at 200 uM after 24 hrs by scanning electron microscopic analysis; format: functional, organism-based
[25] = tested on: Escherichia coli; assay: Inhibition of biofilm formation in sdiA-knockout Escherichia coli AY1297 expressing red fluorescent protein assessed as effect on surface area of biofilm at 200 uM after 24 hrs by confocal laser scanning microscopic analysis; format: functional, organism-based
[26] = tested on: Escherichia coli; assay: Inhibition of biofilm formation in sdiA-knockout Escherichia coli AY1297 expressing red fluorescent protein assessed as reduction in biomass at 200 uM after 24 hrs by confocal laser scanning microscopic analysis relative to control; format: functional; conditions: AY1297, 24 h
[27] = tested on: Escherichia coli; assay: Inhibition of biofilm formation in sdiA-knockout Escherichia coli AY1297 expressing red fluorescent protein assessed as thickness of biofilm at 200 uM after 24 hrs by confocal laser scanning microscopic analysis (reference value: 157 micrometer); format: functional
[28] = tested on: Escherichia coli; assay: Inhibition of biofilm formation in wild-type Escherichia coli RP437 expressing red fluorescent protein assessed as effect on surface area of biofilm at 200 uM after 24 hrs by confocal laser scanning microscopic analysis; format: functional, organism-based
[29] = tested on: Escherichia coli; assay: Inhibition of biofilm formation in wild-type Escherichia coli RP437 at 200 uM after 24 hrs by scanning electron microscopic analysis; format: functional, organism-based
[30] = tested on: Escherichia coli; assay: Inhibition of biofilm formation in wild-type Escherichia coli RP437 expressing red fluorescent protein assessed as reduction in biomass at 200 uM after 24 hrs by confocal laser scanning microscopic analysis relative to control; format: functional; conditions: RP437, 24 h
[31] = tested on: Pseudomonas aeruginosa; assay: Antimicrobial activity against wild-type Pseudomonas aeruginosa PAO1 assessed as inhibition of planktonic growth at 100 uM measured for 2 to 24 hrs; format: organism-based; conditions: in vivo
[32] = tested on: Pseudomonas aeruginosa; assay: Inhibition of biofilm formation in wild-type Pseudomonas aeruginosa PAO1 at 50 uM; format: functional, organism-based

With `O=C1C=C(Br)/C(=C/Br)O1` the Activity [1] was “Non-toxic”, the “growth inhibition (GI)” value [2] was “Toxic” and the inhibition [3] was “inactive”. For the same molecule, the inhibition [4] was “inactive”, the “growth inhibition (GI)” value [5] was “Non-toxic” and the Activity [6] was “Non-toxic”. The “growth inhibition (GI)” value [7] was “Toxic”.
With `C/C(Br)=C1\C=CC(=O)O1` the Ratio [8] was 2, the inhibition at 300 µM [9] was 34% and the inhibition [10] was “inactive”. For the same molecule, the inhibition [11] was “inactive”, the inhibition at 300 µM [12] was 26% and the inhibition [13] was “Active”. For the same molecule, the “growth inhibition (GI)” value [14] was “Non-toxic”, the Activity [15] was “Active” and the inhibition [16] was “inactive”. For the same molecule, the inhibition [17] was “inactive”, the inhibition [18] was “inactive” and the inhibition [19] was 41%. For the same molecule, the inhibition [20] was “inactive”, the “growth inhibition (GI)” value [21] was “Non-toxic” and the “growth inhibition (GI)” value [22] was “Non-toxic”.
For `CC1=C(Br)/C(=C\Br)OC1=O`, the Ratio [8] was 2, the Activity [23] was 126 um and the inhibition [24] was “inactive”. The inhibition [25] was “Active”, the inhibition at 200 µM ([10]; RP437, 24 h) was 50% and the “growth inhibition (GI)” value [2] was “Non-toxic”. For the same molecule, the inhibition [13] was “Active”, the Activity [15] was “Active” and the inhibition at 200 µM ([16]; PAO1, 24 h) was 41%. The “growth inhibition (GI)” value [5] was “Non-toxic”, the inhibition at 200 µM ([18]; PAO1, 24 h) was 43% and the “growth inhibition (GI)” value [7] was “Non-toxic”. For the same molecule, the inhibition at 200 µM [26] was 36%, the inhibition [19] was 43% and the Activity [27] was 137 um. The inhibition [28] was “Active”, the inhibition [29] was “Active” and the inhibition at 200 µM [30] was 53%. It also gave an inhibition at 200 µM ([20]; AY1297, 24 h) of 18%.
In the case of `O=C1C=C/C(=C/Br)O1`, the Activity [31] is reported as “Toxic”, the “growth inhibition (GI)” value [2] is reported as “Toxic” and the inhibition [3] is reported as “inactive”. The inhibition [32] was “inactive”, the “growth inhibition (GI)” value [5] was “Toxic” and the Activity [6] was “Non-toxic”. The “growth inhibition (GI)” value [7] was “Non-toxic”.
